Experimental data from US20250353858A1, “CONDENSED HETEROCYCLIC COMPOUNDS AS INHIBITOR OF DIACYLGLYCEROL KINASES” (BEONE MEDICINES I GMBH, priority 2023, published 2025).

Tests used:
[1] = biological target: DGKα (Homo sapiens (Human), UniProt P23743); experiment: Biochemical DGK IC50 assay (ADP-Glo, lipid micelle substrate), DGKα; conditions: full length DGKα […], ATP 140 μM, DAG 80 μM; also: full length DGKα 7.5 nM
Description: (§1) Enzymatic reactions of DGKζ, DGKα and DGKδ were performed using ADP-Glo assay with lipid micelle substrate. […] Full length DGKα (D21-10BG, SignalChem) and full length DGKδ (D23-10G, SignalChem) were purchased. Lipid micelle was prepared by dissolving DAG (Sigma, 317505-10MG) and PS (Sigma, P7769-100MG) with chloroform which was furtherly removed by rotary evaporation. The resulted product was resuspended in buffer containing 25 mM HEPES pH 7.0, 0.5 mM EDTA and 160 mM Octyl β-D glucopyranoside by vigorous mixing and ultrasonic (IID, Scientz).
(§2) The inhibition activities testing for the compound disclosed herein were carried out at room temperature in assay buffer containing 50 mM HEPES, 10 mM MgCl2, 0.01% BSA, 0.1 mM Na3VO4, 0.005% Tween-20 and 0.01 mM CaCl2. Compounds in DMSO were dispensed into wells of a black 384 well plate (Corning 4514) using D300e digital dispenser (Tecan). […] 3 μL 2× enzyme solution was added to wells. […] After 1 hour reaction, 5 μL ADP-Glo reagent (Promga V9101) was added and incubated for 40 minutes. 10 μL Kinase Detection reagent was added and incubated for 30 minutes. Luminescence was measured on a microplate reader (PHERAstar FSX, BMG labtech). The IC50s are calculated based on inhibition of enzyme activity in the presence of increasing concentrations of compounds.

[2] = biological target: DGKζ (Homo sapiens (Human), UniProt Q13574); experiment: Biochemical DGK IC50 assay (ADP-Glo, lipid micelle substrate), DGKζ; conditions: full length DGKζ 0.5 nM, ATP 140 μM, DAG 80 μM
Chain of DGKζ (Q13574 other isoform, or with tags, fused parts or gaps): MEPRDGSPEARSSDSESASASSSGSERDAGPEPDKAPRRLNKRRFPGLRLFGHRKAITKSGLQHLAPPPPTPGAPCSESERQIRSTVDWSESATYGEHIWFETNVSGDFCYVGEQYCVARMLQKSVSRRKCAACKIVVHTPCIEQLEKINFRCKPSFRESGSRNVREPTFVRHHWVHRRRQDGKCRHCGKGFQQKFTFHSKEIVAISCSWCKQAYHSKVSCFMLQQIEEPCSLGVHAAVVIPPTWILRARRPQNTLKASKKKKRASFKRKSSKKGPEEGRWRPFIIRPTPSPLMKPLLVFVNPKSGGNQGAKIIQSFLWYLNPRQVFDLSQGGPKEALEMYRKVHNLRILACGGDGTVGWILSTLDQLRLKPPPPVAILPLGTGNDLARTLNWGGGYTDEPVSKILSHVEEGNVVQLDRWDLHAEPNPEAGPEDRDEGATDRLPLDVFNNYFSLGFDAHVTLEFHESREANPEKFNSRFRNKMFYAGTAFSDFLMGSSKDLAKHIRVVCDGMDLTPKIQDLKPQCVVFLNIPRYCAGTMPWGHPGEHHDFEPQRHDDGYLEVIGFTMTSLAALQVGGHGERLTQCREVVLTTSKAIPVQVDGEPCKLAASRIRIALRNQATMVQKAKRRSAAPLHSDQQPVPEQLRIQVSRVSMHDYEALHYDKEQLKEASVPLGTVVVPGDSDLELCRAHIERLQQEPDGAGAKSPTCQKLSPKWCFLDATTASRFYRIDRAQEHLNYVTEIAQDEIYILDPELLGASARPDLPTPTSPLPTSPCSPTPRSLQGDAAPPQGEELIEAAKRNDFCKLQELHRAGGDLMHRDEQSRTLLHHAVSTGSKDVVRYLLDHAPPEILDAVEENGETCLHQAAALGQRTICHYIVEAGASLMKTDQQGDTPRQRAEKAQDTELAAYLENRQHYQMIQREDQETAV
Description: as §1, §2
Human His-TEV-DGK-zeta-pFastBac1 and human baculovirus samples was generated using the Bac-to-Bac baculovirus expression system (Invitrogen) according to the manufacturer's protocol. The DNA used for expression of DGK-zeta, have SEQ ID Nos: 1. Baculovirus amplification was achieved using infected SF9 cells at 1:2000 virus/cells ratios, and grown for 96 hours at 27° C. post-transfected.
Full length human DGKζ produced as described above, was purified from Sf9 baculovirus-infected insect cell paste. The cells were lysed using sonication method, and the lysates were clarified by centrifugation.

Chain of DGKα (P23743 whole entry): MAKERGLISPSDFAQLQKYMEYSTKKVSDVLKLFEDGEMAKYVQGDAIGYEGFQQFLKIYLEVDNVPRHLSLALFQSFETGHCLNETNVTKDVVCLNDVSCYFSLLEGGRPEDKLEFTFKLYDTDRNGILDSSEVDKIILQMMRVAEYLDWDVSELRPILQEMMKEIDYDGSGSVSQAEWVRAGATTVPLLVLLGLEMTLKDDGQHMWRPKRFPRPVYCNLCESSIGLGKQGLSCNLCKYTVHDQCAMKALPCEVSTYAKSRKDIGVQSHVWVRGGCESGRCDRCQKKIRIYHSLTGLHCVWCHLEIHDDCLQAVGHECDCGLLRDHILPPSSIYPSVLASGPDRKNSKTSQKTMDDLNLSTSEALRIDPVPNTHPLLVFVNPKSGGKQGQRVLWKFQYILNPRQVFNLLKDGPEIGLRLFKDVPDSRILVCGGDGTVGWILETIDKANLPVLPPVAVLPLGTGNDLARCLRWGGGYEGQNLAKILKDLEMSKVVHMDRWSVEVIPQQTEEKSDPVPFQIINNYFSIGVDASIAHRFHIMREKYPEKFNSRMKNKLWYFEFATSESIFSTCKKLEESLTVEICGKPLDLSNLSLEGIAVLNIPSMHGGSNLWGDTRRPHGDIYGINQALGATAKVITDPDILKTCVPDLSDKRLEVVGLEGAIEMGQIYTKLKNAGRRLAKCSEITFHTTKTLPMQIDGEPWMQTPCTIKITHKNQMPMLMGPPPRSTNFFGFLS

Compound	IC50 [1] [µM]	IC50 [2] [µM]
Cc1cnc2ccc(C(C)N3C[C@H](C)N(c4cc(=O)[nH]c5cc(CC#N)nn45)C[C@H]3C)cc2n1 (stereo partly drawn) [Compound A5, 2-(7-((2S,5R)-2,5-dimethyl-4-(1-(3-methylquinoxalin-6-yl)ethyl)piperazin-1-yl)-5-oxo-4,5-dihydropyrazolo[1,5-a]pyrimidin-2-yl)acetonitrile]	116	0.1
CC(c1ccc2ncc(C(F)F)nc2c1)N1C[C@H](C)N(c2cc(=O)n(C)c3cc(CC#N)nn23)C[C@H]1C (stereo partly drawn) [Compound A6, 2-(7-((2S,5R)-4-(1-(3-(difluoromethyl)quinoxalin-6-yl)ethyl)-2,5-dimethylpiperazin-1-yl)-4-methyl-5-oxo-4,5-dihydropyrazolo[1,5-a]pyrimidin-2-yl)acetonitrile]	4.64	0.058
COc1cnc2ccc(C(C)N3C[C@H](C)N(c4cc(=O)n(C)c5cc(CC#N)nn45)C[C@H]3C)cc2n1 (stereo partly drawn) [Compound A7, 2-(7-((2S,5R)-4-(1-(3-methoxyquinoxalin-6-yl)ethyl)-2,5-dimethylpiperazin-1-yl)-4-methyl-5-oxo-4,5-dihydropyrazolo[1,5-a]pyrimidin-2-yl)acetonitrile]	16.9	0.023
CC(c1ccc2ncc(Cl)nc2c1)N1C[C@H](C)N(c2cc(=O)n(C)c3cc(CC#N)nn23)C[C@H]1C (stereo partly drawn) [Compound A8, 2-(7-((2S,5R)-4-(1-(3-chloroquinoxalin-6-yl)ethyl)-2,5-dimethylpiperazin-1-yl)-4-methyl-5-oxo-4,5-dihydropyrazolo[1,5-a]pyrimidin-2-yl)acetonitrile]	13.3	0.042
CC(c1ccc2c(c1)OC(C)(C)CO2)N1C[C@H](C)N(c2c(C#N)c(=O)n(C)c3cc(CC#N)nn23)C[C@H]1C (stereo partly drawn) [Compound A12, 2-(cyanomethyl)-7-((2S,5R)-4-(1-(3,3-dimethyl-2,3-dihydrobenzo[b][1,4]dioxin-6-yl)ethyl)-2,5-dimethylpiperazin-1-yl)-4-methyl-5-oxo-4,5-dihydropyrazolo[1,5-a]pyrimidine-6-carbonitrile]	6.52	0.029
CC(c1ccc2c(c1)OCCO2)N1C[C@H](C)N(c2cc(=O)n(C)c3cc(CC#N)nn23)C[C@H]1C (stereo partly drawn) [Compound A13, 2-(7-((2S,5R)-4-(1-(2,3-dihydrobenzo[b][1,4]dioxin-6-yl)ethyl)-2,5-dimethylpiperazin-1-yl)-4-methyl-5-oxo-4,5-dihydropyrazolo[1,5-a]pyrimidin-2-yl)acetonitrile]	10.2	0.053
CC[C@H]1CN(C(C)c2ccc(F)cc2OC)[C@H](CC)CN1c1cc(=O)n(C)c2cc(CC#N)nn12 (stereo partly drawn) [Compound A16, 2-(7-((2S,5R)-2,5-diethyl-4-(1-(4-fluoro-2-methoxyphenyl)ethyl)piperazin-1-yl)-4-methyl-5-oxo-4,5-dihydropyrazolo[1,5-a]pyrimidin-2-yl)acetonitrile]	27.8	0.1
CC[C@H]1CN(C(C)c2ccc(F)cc2OC(F)F)[C@H](CC)CN1c1cc(=O)n(C)c2cc(CC#N)nn12 (stereo partly drawn) [Compound A17, 2-(7-((2S,5R)-4-(1-(2-(difluoromethoxy)-4-fluorophenyl)ethyl)-2,5-diethylpiperazin-1-yl)-4-methyl-5-oxo-4,5-dihydropyrazolo[1,5-a]pyrimidin-2-yl)acetonitrile]	56.7	0.136
CC[C@H]1CN(C(C)c2ccc(F)cc2C(F)F)[C@H](CC)CN1c1cc(=O)n(C)c2cc(CC#N)nn12 (stereo partly drawn) [Compound A18, 2-(7-((2S,5R)-4-(1-(2-(difluoromethyl)-4-fluorophenyl)ethyl)-2,5-diethylpiperazin-1-yl)-4-methyl-5-oxo-4,5-dihydropyrazolo[1,5-a]pyrimidin-2-yl)acetonitrile]	15.7	0.028
CC[C@H]1CN(C(C)c2ccncc2)[C@H](CC)CN1c1cc(=O)n(C)n2cc(CC#N)nc12 (stereo partly drawn) [Compound A19, 2-(8-((2S,5R)-2,5-diethyl-4-(1-(pyridin-4-yl)ethyl)piperazin-1-yl)-5-methy-6-oxo-5,6-dihydroimidazo[1,2-b]pyridazin-2-yl)acetonitrile]	0.161	7.9
CC[C@H]1CN(C(C)c2ccc(C3CC3)cc2F)[C@H](CC)CN1c1cc(=O)n(C)c2cc(CC#N)nn12 (stereo partly drawn) [Compound A21, 2-(7-((2S,5R)-4-(1-(4-cyclopropyl-2-fluorophenyl)ethyl)-2,5-diethylpiperazin-1-yl)-4-methyl-5-oxo-4,5-dihydropyrazolo[1,5-a]pyrimidin-2-yl)acetonitrile]	2.94	0.717
CC[C@H]1CN(C(C)c2ccc(C3CC3)nc2)[C@H](CC)CN1c1cc(=O)n(C)c2cc(CC#N)nn12 (stereo partly drawn) [Compound A23, 2-(7-((2S,5R)-4(1-(6-cyclopropylpyridin-3-yl)ethyl)-2,5-diethylpiperazin-1-yl)-4-methyl-5-oxo-4,5-dihydropyrazolo[1,5-a]pyrimidin-2-yl)acetonitrile]	0.913	0.105
CC[C@H]1CN(C(C)c2ccc(OC(C)C)cn2)[C@H](CC)CN1c1cc(=O)n(C)c2cc(CC#N)nn12 (stereo partly drawn) [Compound A25, 2-(7-((2S,5R)-2,5-diethyl-4-(1-(5-isopropoxypyridin-2-yl)ethyl)piperazin-1-yl)-4-methyl-5-oxo-4,5-dihydropyrazolo[1,5-a]pyrimidin-2-yl)acetonitrile]	0.148	0.175
CC[C@H]1CN(C(C)c2ccc(C3CC3)nc2F)[C@H](CC)CN1c1cc(=O)n(C)c2cc(CC#N)nn12 (stereo partly drawn) [Compound A26, 2-(7-((2S,5R)-4-(1-(6-cyclopropyl-2-fluoropyridin-3-yl)ethyl)-2,5-diethylpiperazin-1-yl)-4-methyl-5-oxo-4,5-dihydropyrazolo[1,5-a]pyrimidin-2-yl)acetonitrile]	1.2	0.061
CC[C@H]1CN(C(C)c2ccc3nc(C)sc3c2)[C@H](CC)CN1c1cc(=O)n(C)c2cc(CC#N)nn12 (stereo partly drawn) [Compound A31, 2-(7-((2S,5R)-2,5-diethyl-4-(1-(2-methylbenzo[d]thiazol-6-yl)ethyl)piperazin-1-yl)-4-methyl-5-oxo-4,5-dihydropyrazolo[1,5-a]pyrimidin-2-yl)acetonitrile]	0.617	0.08
CC[C@H]1CN(C(C)c2ccc3nc(C)sc3n2)[C@H](CC)CN1c1c(F)c(=O)n(C)c2cc(CC#N)nn12 (stereo partly drawn) [Compound A36, 2-(7-((2S,5R)-2,5-diethyl-4-(1-(2-methylthiazolo[5,4-b]pyridin-5-yl)ethyl)piperazin-1-yl)-6-fluoro-4-methyl-5-oxo-4,5-dihydropyrazolo[1,5-a]pyrimidin-2-yl)acetonitrile]	1.58	0.629
CCC(c1ccn2nc(C)cc2n1)N1C[C@H](C)N(c2cc(=O)n(C)c3cc(CC#N)nn23)C[C@H]1CC (stereo partly drawn) [Compound A43, 2-(7-((2S,5R)-5-ethyl-2-methyl-4-(1-(2-methylpyrazolo [1,5-a]pyrimidin-5-yl)propyl)piperazin-1-yl)-4-methyl-5-oxo-4,5-dihydropyrazolo [1,5-a]pyrimidin-2-yl)acetonitrile]	0.267	0.266
CC[C@H]1CN(C(C)c2ccn3ncc(F)c3n2)[C@H](CC)CN1c1nc(=O)n(C)c2cc(CC#N)nn12 (stereo partly drawn) [Compound A50, 2-(4-((2S,5R)-2,5-diethyl-4-(1-(3-fluoropyrazolo[1,5-a]pyrimidin-5-yl)ethyl)piperazin-1-yl)-1-methyl-2-oxo-1,2-dihydropyrazolo[1,5-a][1,3,5]triazin-7-yl)acetonitrile]	0.055	0.038
CC[C@H]1CN(C(C)c2ccn3nc(C)cc3c2)[C@H](CC)CN1c1nc(=O)n(C)c2cc(CC#N)nn12 (stereo partly drawn) [Compound A55, 2-(4-((2S,5R)-2,5-diethyl-4-(1-(2-methylpyrazolo[1,5-a]pyridin-5-yl)ethyl)piperazin-1-yl)-1-methyl-2-oxo-1,2-dihydropyrazolo[1,5-a][1,3,5]triazin-7-yl)acetonitrile]	0.15	0.053
CC[C@H]1CN(C(C)c2ccn3nc(F)cc3n2)[C@H](CC)CN1c1nc(=O)n(C)c2cc(CC#N)nn12 (stereo partly drawn) [Compound A56, 2-(4-((2S,5R)-2,5-diethyl-4-(1-(2-fluoropyrazolo[1,5-a]pyrimidin-5-yl)ethyl)piperazin-1-yl)-1-methyl-2-oxo-1,2-dihydropyrazolo[1,5-a][1,3,5]triazin-7-yl)acetonitrile]	0.017	0.073
CC[C@H]1CN(C(C)c2ccn3nc(Cl)cc3n2)[C@H](CC)CN1c1nc(=O)n(C)c2cc(CC#N)nn12 (stereo partly drawn) [Compound A58, 2-(4-((2S,5R)-4-(l-(2-chloropyrazolo[1,5-a]pyrimidin-5-yl)ethyl)-2,5-diethylpiperazin-1-yl)-1-methyl-2-oxo-1,2-dihydropyrazolo[1,5-a][1,3,5]triazin-7-yl)acetonitrile]	0.015	0.042
